Laboratory results from article PMC6828813, “Biochemical characterisation of four rhamnosidases from thermophilic bacteria of the genera Thermotoga, Caldicellulosiruptor and Thermoclostridium” (Scientific Reports, 2019).

What was measured:
[1] = target: T1, Cb_Ram106B (Caldicellulosiruptor bescii, UniProt B9MP87); assay: pNP release, absorbance at […] nm, Hill fit; assay type: biochemical; conditions: Kprime = Khalf^h, Hill coefficient h = 1.64 ± 0.20; 1 mM CoCl2, 100 mM MOPS pH 7 (RT), 70 °C
T1 construct: gene Athe_2581

[2] = target: T2, Tm_Ram106B (Thermotoga maritima, UniProt Q9X0G3); assay: product inhibition of pNPR hydrolysis, pNP absorbance at […] nm; assay type: biochemical; conditions: read-out: IC50 (at Km or Kprime)
T2 construct: gene TM_1074

[3] = target: T1, Cb_Ram106B; assay: as above; assay type: biochemical; conditions: read-out: IC50 (at Km or Kprime)
[4] = target: T3, Ts_Ram106B (Thermoclostridium stercorarium, UniProt L7VK28); assay: as above; assay type: biochemical; conditions: read-out: Ki^b, α^b (mM rhamnose)
T3 construct: gene Cst_c00400

[5] = target: T4, Tn_Ram106B (Thermotoga neapolitana, UniProt B9K9N8); assay: as above; assay type: biochemical; conditions: read-out: IC50 (at Km or Kprime)
T4 construct: gene CTN_1495

[6] = target: T4, Tn_Ram106B; assay: as above; assay type: biochemical; conditions: read-out: Ki^b, α^b (mM rhamnose)
[7] = target: T2, Tm_Ram106B; assay: as above; assay type: biochemical; conditions: read-out: Ki^b, α^b (mM rhamnose)
[8] = target: T3, Ts_Ram106B; assay: as above; assay type: biochemical; conditions: read-out: IC50 (at Km or Kprime)
[9] = substrate: C[C@@H]1O[C@@H](Oc2ccc([N+](=O)[O-])cc2)[C@H](O)[C@H](O)[C@H]1O; assay: purified protein; assay type: biochemical, Thermotoga maritima; conditions: 1 mM CoCl2, 100 mM MOPS pH 7 (RT), 80 °C
[10] = substrate: C[C@@H]1O[C@@H](Oc2ccc([N+](=O)[O-])cc2)[C@H](O)[C@H](O)[C@H]1O; assay: purified protein; assay type: biochemical, Thermotoga neapolitana; conditions: 1 mM CoCl2, 100 mM MOPS pH 7 (RT), 80 °C
[11] = substrate: C[C@@H]1O[C@@H](Oc2ccc([N+](=O)[O-])cc2)[C@H](O)[C@H](O)[C@H]1O; assay: purified protein; assay type: biochemical, Thermoclostridium stercorarium; conditions: 1 mM CoCl2, 100 mM MOPS pH 7 (RT), 55 °C

T1 sequence (B9MP87 entry or part of it): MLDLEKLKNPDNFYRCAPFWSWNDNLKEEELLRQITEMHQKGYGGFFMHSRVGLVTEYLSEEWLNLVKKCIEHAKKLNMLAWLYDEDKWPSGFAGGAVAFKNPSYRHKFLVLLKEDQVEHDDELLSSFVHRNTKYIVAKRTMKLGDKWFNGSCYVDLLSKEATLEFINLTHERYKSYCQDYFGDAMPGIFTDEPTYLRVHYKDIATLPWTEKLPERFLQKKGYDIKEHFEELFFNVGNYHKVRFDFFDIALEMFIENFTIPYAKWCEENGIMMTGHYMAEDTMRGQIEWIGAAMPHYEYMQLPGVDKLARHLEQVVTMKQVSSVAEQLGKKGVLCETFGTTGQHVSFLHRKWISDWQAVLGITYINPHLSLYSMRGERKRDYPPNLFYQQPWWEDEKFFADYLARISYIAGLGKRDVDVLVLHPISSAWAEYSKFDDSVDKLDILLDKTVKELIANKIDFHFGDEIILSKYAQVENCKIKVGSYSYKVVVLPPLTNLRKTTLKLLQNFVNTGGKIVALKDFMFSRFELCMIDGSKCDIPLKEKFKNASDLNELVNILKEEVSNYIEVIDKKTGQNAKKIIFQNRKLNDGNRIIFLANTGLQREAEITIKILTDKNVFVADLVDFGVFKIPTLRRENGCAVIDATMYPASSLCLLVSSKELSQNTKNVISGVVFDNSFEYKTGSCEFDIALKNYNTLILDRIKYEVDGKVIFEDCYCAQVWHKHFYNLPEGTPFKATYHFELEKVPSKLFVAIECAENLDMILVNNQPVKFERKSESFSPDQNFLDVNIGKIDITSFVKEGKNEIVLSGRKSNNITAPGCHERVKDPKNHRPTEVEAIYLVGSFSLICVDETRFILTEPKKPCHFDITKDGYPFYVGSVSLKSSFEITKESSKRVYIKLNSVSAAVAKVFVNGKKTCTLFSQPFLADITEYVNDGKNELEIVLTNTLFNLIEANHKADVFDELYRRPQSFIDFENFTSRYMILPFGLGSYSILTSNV

**Q.** C[C@@H]1O[C@@H](Oc2ccc([N+](=O)[O-])cc2)[C@H](O)[C@H](O)[C@H]1O [pNPR, para-nitrophenyl-α-L-rhamnopyranoside] was tested. Which “Km or Kprime, h^b,c” value [1] did it give?
**A.** Its value is 1.29 ± 0.23 mM.

**Q.** Which IC50 [2] does the source give for C[C@@H]1O[C@@H](O)[C@H](O)[C@H](O)[C@H]1O [rhamnose] here?
**A.** Its IC50 is 4.9 mM.

**Q.** What about the IC50 [3] of the same molecule?
**A.** Its IC50 is 5.5 mM.

**Q.** What about the Ki [4] of the same molecule?
**A.** The Ki was 4.94 ± 0.75 mM.

**Q.** And the IC50 [5]?
**A.** Its IC50 is 6.5 mM.

**Q.** And the Ki [6]?
**A.** The Ki was 5.5 ± 1.01 mM.

**Q.** And the Ki [7]?
**A.** Its Ki is 2.37 ± 0.13 mM.

**Q.** And the IC50 [8]?
**A.** The IC50 was 8.3 mM.

B1: Tm_Ram106B (Thermotoga maritima MSB8) (protein)
chain: MNLKDLENPGVWYRPAPFWSWNDKLCEEELLRQIDEMYEKGYGGFFMHSRVGLVTEYLSEEWMRLVRSCAEHARKLGMLAWLYDEDKWPSGFAGGIVPLEKPEHRHKYLTLLKKDQIKPEDEILKKIERDGEEFYVVKRVMKLGDPWFNGTCYVDLLSRETTEAFLRSTHERYKKSCGDLFRVSIPGIFTDEPTYLRVHHPKETTLPWTERFPEEFLRRKGYDIRDHLEELFFNVKDYMKVRYDFFDVATSLFIENFTIPYAKWCEENGIFMTGHYMAEDTLRGQVEWIGAAMPHYEYMQIPGIDKLARHLEQVVTIKQVSSAAEQLGKKWVLCETFGTTGQHVSFLHRKWIADWQAVLGVTYINPHLSLYSMRGERKRDYPPNLFYQQPWWKNERFLSDYFARLNHIVTQGKREVKVLMIHPISSAWCVYSKFDDEIDKLNELFDTITKELVANKIDFHFGDEMILSKHGRVKEAKLRVGEYEYEVVVLPPLLNLKSSTVELLNSLAENGGKVFVLKDFRYGRFFPERVEGKKGRIEFLKKARVFETLEDLIEELKPFFSVDVLDTKTKENAKAVIAQKRVLEDGSYLLFLANTDIDREVHCHLELKEKRKHTYAIDLFNFKLVELKENEFVMFPASSVCIWVTDEEVPAEDEKVVSTGVLLEKEFDFETALNDFEVKMNSFNVLPVDRVEYFEAGGRVFRNEFVSKIWYEFYRLPDGTPFRVEYSFEVRKKPQKLFLVVECAENLDRITVNGREVRYERKSCIFNEEQNFLDVNFGKMEITDLVREGKNTVVLEGRKENNITGPGCHTRVKDPENHRPTEVETIYLVGDFSLVNVDETRYVIDAPKIPDHRDITRDGYPFYVGSFTLKKIFECKKDPGKRYFLKLNGVEAASVEVILNGKFLGVLFWRPFMIDITDALRNGKNELQLVLTNTLFNLIEANHKADVLEETFRRPKSFIDFEHHTDRYILLPFGLENVAVLSSSSR
**Q.** With B1 as the molecule, how does the K0.5 [9] read?
**A.** The K0.5 was 1.94 ± 0.20 mM.

**Q.** What about the kcat [9] of the same molecule?
**A.** Its kcat is 217.8 ± 10.1 s⁻¹.

B2: Tn_Ram106B (Thermotoga neapolitana DSM 4359) (protein)
chain: MNLKDLENPGVWYRPAPFWSWNDKLCEEELLRQIDEMCEKGYGGFFMHSRVGLVTEYLSDEWMALVKRCAEHARKLGMLAWLYDEDKWPSGFAGGIVPLESDEYRHRFLVLLKKEQIEPGDEILKRIERGNEELFVVKRTMKLGDPWFNGTCYVDLLSKKVTEAFIRSTHEKYRKVCGEFFGSSIPGIFTDEPTYLRVHYPEIPTLPWTDRFPEEFLKRKGYDIREHFEELFFNTKDYMKVRYDFFDVATELFIENFTIPYAKWCEENGISMTGHYMAEDTLRGQVEWIGAAMPHYEYMQIPGVDKLARHLEQVITIKQVSSVAEQLRKKWVLCETFGTTGQHVSFLHRKWIADWQAVLGITYINPHLSLYSMRGERKRDYPPNLFYQQPWWKNEKRFSDYLARLNYLMTQGKREVKVLMIHPITSAWCVYSKFDDEIDKLNESFDRTVKELVSNKIDFHFGDETILSKHGRVSGEKLVVGNCEYDIVLVPPLLNLRRSTVDLLNEFSKNGGKILVLKDGNFFPERVEGRKEKPEFLKRARVFEDLQGLIDSLRDVAAVEVIDKKTGKNAKSVIAQKRLLENGSYIIFLANTDINREVHCQLNLKEEKRHIYAIDIFDFAVVEFSEREFTMHPASSLLIWVTDEEIPSQRRSVISTGVTLKREFELEMAFSEFETEMNGFNVLPVDRVDMFEADGKVFRDEYVSKIWYEFYRLPEGTPFGVVYSFEIREKPEKLFLVVECAENLDRITVNGHEAVFKKKGCTFTEEECFLDVNFGKMDITELVQVGKNIVVLEGKKSNNITGPGCHERVKNPENHRPTEVETIYLVGKFSLVNVDETKYVIDAPKTPDHKDITRSGYPFYVGSFTLRKTFEMKKDPKRRYFLKLNSVRAASVEVFLNEKFVGSLFWEPFMVEITDNLHDGKNELKLVLTNTLFNLIEANHKADVLEETFRRPWSFIDFEHHTDRYILLPFGLENAAVLSSFSP
**Q.** With B2 as the molecule, how does the K0.5 [10] read?
**A.** The K0.5 was 1.47 ± 0.14 mM.

**Q.** What about the kcat [10] of the same molecule?
**A.** The kcat was 146.8 ± 6.1 s⁻¹.

B3: Ts_Ram106B (Thermoclostridium stercorarium subsp. stercorarium DSM 8532) (protein)
chain: MFFKNSREEFDESLFRNPTSEYRCAPFWAWNKKLDWEDMERHIEIFKEMGMGGFHIHSRIGLNTPYLSDEFLDYVKKCNAKAKELGMLTWLYDEDKWPSGFGGGFVTKDHNFRSRYLLFSPFYHQSGYYERHIPRENRLGIDGYLSLIAEYKVVLKNGYLSSYKRIESGDNDSAEGETWYAYRVISGDLPWFNNQAYVDTLNKKAVEKFIEVTHEKYFEILGGEFSKSVPAVFTDEPQFVLKQNLPEPDSRQEVGIPYTDLFEESFRQRFGCSFLDSLPEIFWELEGGKFSRIRYWYHEHIAELFASSFADTVGRWCREHNLMLTGHMMAESTLESQTRALGEAMRSYRSFDLPGVDILANKYEYSTVKQAQSVARQFGKAGVLSELYGVTNWDFDFRGHKLQGDWQAAMGVSVRVPHLSWLGMGGESKRDYPAPVDYHSPWYKKYHIIEDHFSRVNVCMTRGVPCVNIAVIHPIESYWLLWGPDSQTKQKRLKLQQEFESIIDWLLFSNLDFDFIAESMVKELYRGSGNRHTQFGDMKYEVLIVPELITIRSETVKMLINHLENGGKVIILGNLPKIIDGDSDRKFDIECLGECVINNSKYDLLDALEPFRQIDIVNRDSSRNENYLYQLRDEAECKWLFIAPGKPVEALKLPEEKVLTVKVRGSYEVWRYDTFTGEKQKIQARGKDGWTYFEQTAYEHDSFLYRLLKTGTNDTTEKSVSSGVGRQVNKGVKYIKYLNGPWEYRLSEKNVLLLDMARYSLDNGEISEREEVLRIDDKIRTKLGYPLRTDSFPQPWLSPAEAECPHTVKLYFEIESETDVHEAELAFEGKGVTAEWNNVAVTDRADGFFIDKCFNVMKLPGIKKGVNQLVLTVPFGEKTDLEWCFITGNFGTCVKGDKVIITNPPERLFFGDVTRQGLSFYGGNITYIVNIDVPEGEMTVEIPQYRGALVEVALDNAKKGDIIFSPYRLNLGYVSQGEHTIEITLYGNRFNMFGQLHNCNRVEKYYGPNTWRTKGNAFAYEYQLREFGIIAAPLIYIE
**Q.** B3 was tested. Which K0.5 [11] did it give?
**A.** Its K0.5 is 1.90 ± 0.18 mM.

**Q.** What about the kcat [11] of the same molecule?
**A.** The kcat was 14.3 ± 0.5 s⁻¹.
